Data: patent US6730660B2, “Peritoneal dialysis solutions with polypeptides” (Baxter International Inc., priority 1992, dated 2004)

Test system: albino guinea pigs
Assay: Dermal sensitization study: intradermal induction with Freund's Complete Adjuvant, then intradermal challenge
Format: in vivo, guinea pig
Experimental: The study was conducted using 10 test animals and four naive control animals per test or positive control material. On Day 1, animals in each test group received duplicate 0.05-mL intradermal injections of a 1:1 ratio of Freund's Complete Adjuvant in sterile water, the respective test material, and a 1:1 ratio of the respective test material in Freund's Complete Adjuvant.
For the positive control group, the animals received duplicate 0.05-mL intradermal injections of a 1:1 ratio of Freund's Complete Adjuvant in sterile water, a 5% w/v suspension of sulfathiazole in sterile water, and a 5% w/v suspension of sulfathiazole in Freund's Complete Adjuvant.
On day 7, animals in all three test groups and the positive control group were pretreated with 10% w/w sodium lauryl sulfate in petrolatum applied topically at the shaved area of the Day 1 intradermal injections. On Day 8, the respective test or positive control material was injected intradermally at a volume of 0.05 mL into two separate areas located just posterior to the initial intradermal injections.
All the test materials were administered undiluted and the positive control was administered as a 5% w/v suspension of sulfathiazole in sterile water. All naive control animals were not treated during the induction phase.
Two weeks following the Day 8 intradermal injections, all animals in the respective test and naive control groups received a challenge intradermal injection. The respective undiluted test material was injected intradermally at a volume of 0.05-mL into one site on the shaved right flank of each respective animal. The positive control animals were treated with a 1% w/v suspension of sulfathiazole in sterile 0.9% saline. The sites were examined for erythema and edema at 24, 48, and 72 hours following injection.
Young adult albino guinea pigs, Hra:(DH)SPF, were procured, maintained individually in screen-bottom stainless steel cages in temperature- and humidity-controlled rooms, provided continuous access to Certified Guinea Pig Chow® 5026, Purina Mills, Inc., and water and held for an acclimation period of at least 7 days. If variations from the prescribed environmental conditions existed, they were documented and considered to have no effect on the study outcome. No contaminants were expected to have been present in the feed or water which would have interfered with or affected the results of the study.
Intradermal Injections (Day 1) A 4-cm×6-cm area was clipped along the midline over the shoulder region of each animal in the test and positive control groups. Six intradermal injections were made within the boundaries of a 2-cm×4-cm area, one row of three injections on each side of the midline as follows: […]

Compound: Nc1ccc(S(=O)(=O)Nc2nccs2)cc1 [Sulfathiazole]
- dermal reactions at challenge (Day 22 intradermal challenge 0.05 mL, examined at 24, 48 and 72 hours): Dermal sensitization responses were observed
- body weight loss of one animal (animal E17221, Group 11, third week of the study): 76 g
- Classification (sensitizer) (guinea pig, after intradermal challenge): Sensitizer
- # of Positive Reactions/# in Group (test or positive control groups, after intradermal challenge): 9/10
